{"source": "patent US10954325B2", "about": "“Raft agents and their use in the development of polyvinylpyrrolidone grafted nanoparticles” (UNIVERSITY OF SOUTH CAROLINA, priority 2014, dated 2021)", "key": {"MRSA 252 (ATCCBAA-1720)": {"tested_on": "MRSA 252 (ATCCBAA-1720)", "assay": "Disk diffusion assay, MRSA 252", "assay_type": "cell-based, Staphylococcus aureus", "conditions": "at low doses", "excerpt": "(§1) The PVP grafted nanoparticles were employed to non-covalently attach the antibiotic penicillin-G (PenG) and tested for activity against bacteria. Methicillin-resistant Staphylococcus aureus (MRSA)-252, HA-MRSA, CA-MRSA and methicillin-sensitive Staphylococcus aureus (MSSA) were selected as the target bacteria. A control group of free PenG with the same dose was used for the disk diffusion assay of PenG-nanoparticle complex. […] Without wishing to be bound by any particular theory, it is believed that the enhanced inhibition activity was due to the locally high concentrations of antibiotics physically attached to PVP grafted nanoparticles, which overwhelms the bacterial resistance. The small size PVP grafted nanoparticles with controllable surface attached polymer chain lengths offers a significant vehicle to restore antibiotics activities.\n(§2) Bacteria Strains: MRSA 252 (ATCCBAA-1720); Staphylococcus aureus ATCC 29213 (community acquired-MRSA); Staphylococcus aureus ATCC BAA 1717 (hospital associated-MRSA); MSSA ATCC BAA 1718. These bacterial strains were grown at 37° C. in tryptic soy broth for 24 hours.\n(§3) Preparation of Nanoparticle-PenG Complex: To prepare the nanoparticle-PenG complex, 15 μL of PVP grafted silica nanoparticles solution (26.65 mg/ml) and 1.85 mL DI water were mixed. 200 μL Penicillin G sodium salt aqueous solution (1 mg/mL) was added and incubated at 24° C. […]"}, "[1]": {"tested_on": "MRSA-252, HA-MRSA, CA-MRSA and MSSA", "assay": "Disk diffusion assay, result stated over the tested strains together", "assay_type": "cell-based, Staphylococcus aureus", "conditions": "when physically bound to the PVP grafted silica nanoparticles; against MRSA", "excerpt": "as §1, §2, §3"}}, "data": [{"smiles": "CC1(C)S[C@@H]2[C@H](NC(=O)Cc3ccccc3)C(=O)N2[C@H]1C(=O)[O-].[Na+]", "note": "[free penicillin-G, penicillin-G]", "values": [{"measurement": "inhibition activity (disk diffusion)", "setting": "MRSA 252 (ATCCBAA-1720)", "value": "completely ineffective"}, {"measurement": "activity of antibiotic over MRSA", "setting": "[1]", "value": "significantly increased"}]}]}
